Assay results reported in patent US20140094424A1, “MICROBICIDAL COMPOSITIONS AND METHODS OF PRODUCTION USE THEREOF” (priority 2011, published 2014).

How the values were obtained:
[1] = tested on: Pseudomonas aeruginosa (AY); assay: MBC (minimum bactericidal concentration) test in Wash NEXT reagent; assay type: cell-based
[2] = tested on: Gram positive rods (S); assay: as above; assay type: cell-based

[N-]=[N+]=[N-] [Sodium Azide, sodium azide]
+: MBC test growth score ([1]; 10% preservative, 8 hour) | MBC test growth score ([1]; 10% preservative, 24 hour) | MBC test growth score ([1]; 10% preservative, 48 hour) | MBC test growth score ([1]; 10% preservative, 72 hour) | MBC test growth score ([1]; 20% preservative, 8 hour) | MBC test growth score ([1]; 20% preservative, 24 hour) | MBC test growth score ([1]; 20% preservative, 48 hour) | MBC test growth score ([1]; 20% preservative, 72 hour) | MBC test growth score ([1]; 30% preservative, 8 hour) | MBC test growth score ([1]; 30% preservative, 24 hour) | MBC test growth score ([1]; 30% preservative, 48 hour) | MBC test growth score ([1]; 30% preservative, 72 hour) | MBC test growth score ([1]; 40% preservative, 8 hour) | MBC test growth score ([1]; 40% preservative, 24 hour) | MBC test growth score ([1]; 40% preservative, 48 hour) | MBC test growth score ([1]; 40% preservative, 72 hour) | MBC test growth score ([1]; 50% preservative, 8 hour) | MBC test growth score ([1]; 50% preservative, 24 hour) | MBC test growth score ([1]; 50% preservative, 48 hour) | MBC test growth score ([1]; 50% preservative, 72 hour) | MBC test growth score ([1]; 60% preservative, 8 hour) | MBC test growth score ([1]; 60% preservative, 24 hour) | MBC test growth score ([1]; 60% preservative, 48 hour) | MBC test growth score ([1]; 60% preservative, 72 hour) | MBC test growth score ([1]; 70% preservative, 8 hour) | MBC test growth score ([1]; 70% preservative, 24 hour) | MBC test growth score ([1]; 70% preservative, 48 hour) | MBC test growth score ([1]; 70% preservative, 72 hour) | MBC test growth score ([1]; 80% preservative, 8 hour) | MBC test growth score ([1]; 80% preservative, 24 hour) | MBC test growth score ([1]; 80% preservative, 48 hour) | MBC test growth score ([1]; 80% preservative, 72 hour) | MBC test growth score ([1]; 90% preservative, 8 hour) | MBC test growth score ([1]; 90% preservative, 24 hour) | MBC test growth score ([1]; 90% preservative, 48 hour) | MBC test growth score ([1]; 90% preservative, 72 hour) | MBC test growth score ([1]; 100% preservative, 8 hour) | MBC test growth score ([1]; 100% preservative, 24 hour) | MBC test growth score ([1]; 100% preservative, 48 hour) | MBC test growth score ([1]; 100% preservative, 72 hour) | MBC test growth score ([2]; 10% preservative, 8 hour) | MBC test growth score ([2]; 10% preservative, 24 hour) | MBC test growth score ([2]; 10% preservative, 48 hour) | MBC test growth score ([2]; 10% preservative, 72 hour) | MBC test growth score ([2]; 10% preservative, 7 day) | MBC test growth score ([2]; 10% preservative, 14 day) | MBC test growth score ([2]; 20% preservative, 8 hour) | MBC test growth score ([2]; 20% preservative, 24 hour) | MBC test growth score ([2]; 20% preservative, 48 hour) | MBC test growth score ([2]; 20% preservative, 72 hour) | MBC test growth score ([2]; 20% preservative, 7 day) | MBC test growth score ([2]; 20% preservative, 14 day) | MBC test growth score ([2]; 30% preservative, 8 hour) | MBC test growth score ([2]; 30% preservative, 24 hour) | MBC test growth score ([2]; 30% preservative, 48 hour) | MBC test growth score ([2]; 30% preservative, 72 hour) | MBC test growth score ([2]; 30% preservative, 7 day) | MBC test growth score ([2]; 30% preservative, 14 day) | MBC test growth score ([2]; 40% preservative, 8 hour) | MBC test growth score ([2]; 40% preservative, 24 hour) | MBC test growth score ([2]; 40% preservative, 48 hour) | MBC test growth score ([2]; 40% preservative, 72 hour) | MBC test growth score ([2]; 40% preservative, 7 day) | MBC test growth score ([2]; 40% preservative, 14 day) | MBC test growth score ([2]; 50% preservative, 8 hour) | MBC test growth score ([2]; 50% preservative, 24 hour) | MBC test growth score ([2]; 50% preservative, 48 hour) | MBC test growth score ([2]; 50% preservative, 72 hour) | MBC test growth score ([2]; 50% preservative, 7 day) | MBC test growth score ([2]; 50% preservative, 14 day) | MBC test growth score ([2]; 60% preservative, 8 hour) | MBC test growth score ([2]; 60% preservative, 24 hour) | MBC test growth score ([2]; 60% preservative, 48 hour) | MBC test growth score ([2]; 60% preservative, 72 hour) | MBC test growth score ([2]; 60% preservative, 7 day) | MBC test growth score ([2]; 60% preservative, 14 day) | MBC test growth score ([2]; 70% preservative, 8 hour) | MBC test growth score ([2]; 70% preservative, 24 hour) | MBC test growth score ([2]; 70% preservative, 48 hour) | MBC test growth score ([2]; 70% preservative, 72 hour) | MBC test growth score ([2]; 70% preservative, 7 day) | MBC test growth score ([2]; 70% preservative, 14 day) | MBC test growth score ([2]; 80% preservative, 8 hour) | MBC test growth score ([2]; 80% preservative, 24 hour) | MBC test growth score ([2]; 80% preservative, 48 hour) | MBC test growth score ([2]; 80% preservative, 72 hour) | MBC test growth score ([2]; 80% preservative, 7 day) | MBC test growth score ([2]; 80% preservative, 14 day) | MBC test growth score ([2]; 90% preservative, 8 hour) | MBC test growth score ([2]; 90% preservative, 24 hour) | MBC test growth score ([2]; 90% preservative, 48 hour) | MBC test growth score ([2]; 90% preservative, 72 hour) | MBC test growth score ([2]; 90% preservative, 7 day) | MBC test growth score ([2]; 90% preservative, 14 day) | MBC test growth score ([2]; 100% preservative, 8 hour) | MBC test growth score ([2]; 100% preservative, 24 hour) | MBC test growth score ([2]; 100% preservative, 48 hour) | MBC test growth score ([2]; 100% preservative, 72 hour) | MBC test growth score ([2]; 100% preservative, 7 day) | MBC test growth score ([2]; 100% preservative, 14 day)
No kill @ 100%: total kill at % preservative (MBC) ([1]; at 72 hours, listed as Na Azide) | total kill at % preservative (MBC) ([2]; at 14 days, listed as Na Azide)

Cc1cc(NS(=O)(=O)c2ccc(N)cc2)no1 [Sulfamethoxazole, sulfamethoxazole]
+: MBC test growth score ([1]; 10% preservative, 8 hour) | MBC test growth score ([1]; 10% preservative, 24 hour) | MBC test growth score ([1]; 10% preservative, 48 hour) | MBC test growth score ([1]; 10% preservative, 72 hour) | MBC test growth score ([1]; 20% preservative, 8 hour) | MBC test growth score ([1]; 20% preservative, 24 hour) | MBC test growth score ([1]; 20% preservative, 48 hour) | MBC test growth score ([1]; 20% preservative, 72 hour) | MBC test growth score ([1]; 30% preservative, 8 hour) | MBC test growth score ([1]; 30% preservative, 24 hour) | MBC test growth score ([1]; 30% preservative, 48 hour) | MBC test growth score ([1]; 30% preservative, 72 hour) | MBC test growth score ([1]; 40% preservative, 8 hour) | MBC test growth score ([1]; 40% preservative, 24 hour) | MBC test growth score ([1]; 40% preservative, 48 hour) | MBC test growth score ([1]; 40% preservative, 72 hour) | MBC test growth score ([1]; 50% preservative, 8 hour) | MBC test growth score ([1]; 50% preservative, 24 hour) | MBC test growth score ([1]; 50% preservative, 48 hour) | MBC test growth score ([1]; 50% preservative, 72 hour) | MBC test growth score ([1]; 60% preservative, 8 hour) | MBC test growth score ([1]; 60% preservative, 24 hour) | MBC test growth score ([1]; 60% preservative, 48 hour) | MBC test growth score ([1]; 60% preservative, 72 hour) | MBC test growth score ([1]; 70% preservative, 8 hour) | MBC test growth score ([1]; 70% preservative, 24 hour) | MBC test growth score ([1]; 70% preservative, 48 hour) | MBC test growth score ([1]; 70% preservative, 72 hour) | MBC test growth score ([1]; 80% preservative, 8 hour) | MBC test growth score ([1]; 80% preservative, 24 hour) | MBC test growth score ([1]; 80% preservative, 48 hour) | MBC test growth score ([1]; 80% preservative, 72 hour) | MBC test growth score ([1]; 90% preservative, 8 hour) | MBC test growth score ([1]; 90% preservative, 24 hour) | MBC test growth score ([1]; 90% preservative, 48 hour) | MBC test growth score ([1]; 90% preservative, 72 hour) | MBC test growth score ([1]; 100% preservative, 8 hour) | MBC test growth score ([1]; 100% preservative, 24 hour) | MBC test growth score ([1]; 100% preservative, 48 hour) | MBC test growth score ([1]; 100% preservative, 72 hour) | MBC test growth score ([2]; 10% preservative, 8 hour) | MBC test growth score ([2]; 10% preservative, 24 hour) | MBC test growth score ([2]; 10% preservative, 48 hour) | MBC test growth score ([2]; 10% preservative, 72 hour) | MBC test growth score ([2]; 10% preservative, 7 day) | MBC test growth score ([2]; 10% preservative, 14 day) | MBC test growth score ([2]; 20% preservative, 8 hour) | MBC test growth score ([2]; 20% preservative, 24 hour) | MBC test growth score ([2]; 20% preservative, 48 hour) | MBC test growth score ([2]; 20% preservative, 72 hour) | MBC test growth score ([2]; 20% preservative, 7 day) | MBC test growth score ([2]; 20% preservative, 14 day) | MBC test growth score ([2]; 30% preservative, 8 hour) | MBC test growth score ([2]; 30% preservative, 24 hour) | MBC test growth score ([2]; 30% preservative, 48 hour) | MBC test growth score ([2]; 30% preservative, 72 hour) | MBC test growth score ([2]; 30% preservative, 7 day) | MBC test growth score ([2]; 30% preservative, 14 day) | MBC test growth score ([2]; 40% preservative, 8 hour) | MBC test growth score ([2]; 40% preservative, 24 hour) | MBC test growth score ([2]; 40% preservative, 48 hour) | MBC test growth score ([2]; 40% preservative, 72 hour) | MBC test growth score ([2]; 40% preservative, 7 day) | MBC test growth score ([2]; 40% preservative, 14 day) | MBC test growth score ([2]; 50% preservative, 8 hour) | MBC test growth score ([2]; 50% preservative, 24 hour) | MBC test growth score ([2]; 50% preservative, 48 hour) | MBC test growth score ([2]; 50% preservative, 72 hour) | MBC test growth score ([2]; 50% preservative, 7 day) | MBC test growth score ([2]; 50% preservative, 14 day) | MBC test growth score ([2]; 60% preservative, 8 hour) | MBC test growth score ([2]; 60% preservative, 24 hour) | MBC test growth score ([2]; 60% preservative, 48 hour) | MBC test growth score ([2]; 60% preservative, 72 hour) | MBC test growth score ([2]; 60% preservative, 7 day) | MBC test growth score ([2]; 60% preservative, 14 day) | MBC test growth score ([2]; 70% preservative, 8 hour) | MBC test growth score ([2]; 70% preservative, 24 hour) | MBC test growth score ([2]; 70% preservative, 48 hour) | MBC test growth score ([2]; 70% preservative, 72 hour) | MBC test growth score ([2]; 70% preservative, 7 day) | MBC test growth score ([2]; 70% preservative, 14 day) | MBC test growth score ([2]; 80% preservative, 8 hour) | MBC test growth score ([2]; 80% preservative, 24 hour) | MBC test growth score ([2]; 80% preservative, 48 hour) | MBC test growth score ([2]; 80% preservative, 72 hour) | MBC test growth score ([2]; 80% preservative, 7 day) | MBC test growth score ([2]; 80% preservative, 14 day) | MBC test growth score ([2]; 90% preservative, 8 hour) | MBC test growth score ([2]; 90% preservative, 24 hour) | MBC test growth score ([2]; 90% preservative, 48 hour) | MBC test growth score ([2]; 90% preservative, 72 hour) | MBC test growth score ([2]; 90% preservative, 7 day) | MBC test growth score ([2]; 90% preservative, 14 day) | MBC test growth score ([2]; 100% preservative, 8 hour) | MBC test growth score ([2]; 100% preservative, 24 hour) | MBC test growth score ([2]; 100% preservative, 48 hour) | MBC test growth score ([2]; 100% preservative, 72 hour) | MBC test growth score ([2]; 100% preservative, 7 day) | MBC test growth score ([2]; 100% preservative, 14 day)
